From patent US20240174598A1, “COMPOUNDS FOR THE TREATMENT OF DISORDERS AND SALTS AND POLYMORPHS THEREOF” (OccuRx Pty Ltd, priority 2021, published 2024)
Where a name gives a salt, the structure may show the parent alone.

How the values were obtained:
[1] = Intrinsic dissolution studies (disc, Wood's die); type: physicochemical
Protocol: Discs for the intrinsic dissolution evaluation were prepared by weighing approximately 175 mg of each batch and compressing with a small hydraulic press in a 13 mm Wood's die for 3 minutes at a force of approximately 3000 lbs. The surface of each disc was examined carefully to ensure that it was uniform, smooth and free from loose powder.
The dissolution experiments were conducted by attaching the Wood's die containing the disc, to the matching shafts on an Erweka DT6 dissolution apparatus. The discs were lowered into the media (500 mL at 37° C.) and immediately rotated at 100 rpm. Duplicate samples of the media (0.2 mL) were removed prior to immersion of the disc and then at 2, 5, 10, 15, 20, 25, 30, 60 and 90 minutes after the experiment was initiated. Sampling was discontinued if substantial dissolution was visible or if the disc disintegrated in the media.
At the end of each experiment, the discs were removed from the media and examined to ensure that the surface of the discs remained uniform and to qualitatively assess the extent of dissolution over the course of the experiment. Media samples were centrifuged (10000 rpm×3 min) and a small aliquot (50 μL) removed, 5-fold diluted with 50% aqueous acetonitrile prior to HPLC analysis.

[2] = Dynamic vapor sorption (DVS) analysis; type: physicochemical; conditions: for stability to humidity: over a wide range of humidity
Protocol: Approximately, 10-20 mg of sample was placed into a mesh vapor sorption balance pan and loaded into a DVS Intrinsic dynamic vapor sorption balance by Surface Measurement Systems. The sample was subjected to a ramping profile from 40-90% relative humidity (RH) at 10% increments, maintaining the sample at each step until a stable weight had been achieved (dm/dt 0.004%, minimum step length 30 minutes, maximum step length 500 minutes) at 25° C. After completion of the sorption cycle, the sample was dried using the same procedure to 0% RH and then a second sorption cycle back to 40% RH. Two cycles were performed. The weight change during the sorption/desorption cycles were plotted, allowing for the hygroscopic nature of the sample to be determined. XRPD analysis was then carried out on any solid retained.

Row | SMILES | dissolution profile compared to the free acid of the compound of Formula (I) ([1]; FaSSIF media, 37° C. (FIG. 12)) | dissolution profile compared to the free acid of the compound of Formula (I) ([1]; PBS media, 37° C. (FIG. 13)) | hygroscopicity by dynamic vapor sorption/desorption analysis [2] | water uptake by dynamic vapor sorption ([2]; at 90% RH) | stability to humidity [2] | water uptake corresponding to the mass increase ([2]; at 90% RH) | mass increase by dynamic vapor sorption ([2]; at 90% Relative Humidity (RH)) [wt. %]
1 | COc1cc(/C=C/C(=O)Nc2ccccc2C(=O)O)ccc1OC(F)F [Crystalline Salt B] | superior | equivalent, if not better | non-hygroscopic | negligible water uptake | stable over a wide range of humidity |  | 
2 | COc1cc(/C=C/C(=O)Nc2ccccc2C(=O)O)ccc1OC(F)F [Crystalline Salt A] | superior | superior |  |  | stable over a wide range of humidity | 1.3 equiv. of water | 4.2
